Measured values from PubChem BioAssay AID248 (DTP/NCI, 2004).
Several values for one entry are separate records, joined by “and”; a condition that tells them apart may be missing. Identical values can stand only once. Toxic doses and inconclusive results are not listed. Rule as the data show it: active = T/C of 150% or more; inactive = T/C below 125%.

Test system: L1210 leukemia ip in BDF1 mice, survival T/C
Experiment: NCI In Vivo Anticancer Drug Screen. Data for tumor model L1210 Leukemia (intraperitoneal) in B6D2F1 (BDF1) mice
Conditions: endpoint: mean survival time, higher = longer survival
How it was run: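 Value reflects the ratio of survival in compound-treated mice to survival in vehicle-treated controls, with both groups carrying the same transplanted tumor.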

[1] = dose: 25.0 mg/kg/injection, schedule: Q04DX002 (ip), vehicle: saline with Tween-80
[2] = dose: 6.25 mg/kg/injection, schedule: Q01DX009 (ip), vehicle: Klucel (hydroxypropylcellulose) (HPC)
[3] = dose: 25.0 mg/kg/injection, schedule: Q01DX009 (ip), vehicle: Klucel (hydroxypropylcellulose) (HPC)
[4] = dose: 25.0 mg/kg/injection, schedule: Q01DX009 (ip), vehicle: saline with Tween-80
[5] = dose: 25.0 mg/kg/injection, schedule: Q04DX003 (ip), vehicle: saline with Tween-80
[6] = dose: 50.0 mg/kg/injection, schedule: Q04DX003 (ip), vehicle: saline with Tween-80
[7] = dose: 50.0 mg/kg/injection, schedule: Q04DX002 (ip), vehicle: saline with Tween-80
[8] = dose: 100.0 mg/kg/injection, schedule: Q04DX002 (ip), vehicle: saline with Tween-80
[9] = dose: 50.0 mg/kg/injection, schedule: Q01DX009 (ip), vehicle: saline with Tween-80
[10] = dose: 100.0 mg/kg/injection, schedule: Q01DX009 (ip), vehicle: saline with Tween-80
[11] = dose: 100.0 mg/kg/injection, schedule: Q04DX003 (ip), vehicle: saline with Tween-80

Measured: T/C

C=CS(=O)(=O)c1ccc([N+](=O)[O-])cc1
inactive: dose: 6.25 mg/kg/injection, schedule: Q04DX002 (ip), vehicle: saline with Tween-80 92 % of control | dose: 12.5 mg/kg/injection, schedule: Q04DX002 (ip), vehicle: saline with Tween-80 101 % of control | [1] 94 % of control

CC(=N\N=C(N)N)/C(=N/N=C(N)N)c1ccccc1
inactive: dose: 3.75 mg/kg/injection, schedule: Q01DX Z (ip), vehicle: saline 92 % of control | dose: 7.5 mg/kg/injection, schedule: Q01DX Z (ip), vehicle: saline 96 % of control | dose: 15.0 mg/kg/injection, schedule: Q01DX Z (ip), vehicle: saline 95 % of control and 102 % of control | dose: 30.0 mg/kg/injection, schedule: Q01DX Z (ip), vehicle: saline 92 % of control | dose: 240.0 mg/kg/injection, schedule: Q01DX009 (oral), vehicle: saline 88 % of control

CC1(C#N)CC/C(=C\c2ccc3c(c2)OCO3)C(=O)C1 (stereo not drawn)
inactive: dose: 100.0 mg/kg/injection, schedule: Q04DX003 (ip), vehicle: saline 96 % of control | dose: 200.0 mg/kg/injection, schedule: Q04DX003 (ip), vehicle: saline 91 % of control | dose: 400.0 mg/kg/injection, schedule: Q04DX003 (ip), vehicle: saline 107 % of control

O=C(CCN1CC1)OC1CCCCCC1
inactive: [2] 100 % of control | dose: 12.5 mg/kg/injection, schedule: Q01DX009 (ip), vehicle: Klucel (hydroxypropylcellulose) (HPC) 100 % of control | [3] 95 % of control | dose: 100.0 mg/kg/injection, schedule: Q04DX003 (ip), vehicle: Klucel (hydroxypropylcellulose) (HPC) 104 % of control | dose: 200.0 mg/kg/injection, schedule: Q04DX003 (ip), vehicle: Klucel (hydroxypropylcellulose) (HPC) 101 % of control

CN(C)N=Nc1ccccc1C(=O)O
inactive: dose: 0.78 mg/kg/injection, schedule: Q01DX009 (ip), vehicle: Klucel (hydroxypropylcellulose) (HPC) 105 % of control | dose: 1.56 mg/kg/injection, schedule: Q01DX009 (ip), vehicle: Klucel (hydroxypropylcellulose) (HPC) 97 % of control | dose: 3.12 mg/kg/injection, schedule: Q01DX009 (ip), vehicle: Klucel (hydroxypropylcellulose) (HPC) 103 % of control | [2] 103 % of control | dose: 11.0 mg/kg/injection, schedule: Q01DX009 (ip), vehicle: saline with Tween-80 109 % of control | dose: 12.5 mg/kg/injection, schedule: Q01DX001 (ip), vehicle: saline with Tween-80 95 % of control | dose: 12.5 mg/kg/injection, schedule: Q01DX009 (ip), vehicle: saline with Tween-80 123 % of control | dose: 12.5 mg/kg/injection, schedule: Q04DX003 (ip), vehicle: saline with Tween-80 101 % of control | dose: 17.0 mg/kg/injection, schedule: Q01DX009 (ip), vehicle: saline with Tween-80 107 % of control | dose: 25.0 mg/kg/injection, schedule: Q01DX001 (ip), vehicle: saline with Tween-80 98 % of control | [4] 115 % of control | dose: 25.0 mg/kg/injection, schedule: Q04DX003 (ip), vehicle: other 115 % of control | [5] 104 % of control | dose: 37.0 mg/kg/injection, schedule: Q01DX009 (ip), vehicle: saline with Tween-80 91 % of control | dose: 50.0 mg/kg/injection, schedule: Q01DX001 (ip), vehicle: saline with Tween-80 101 % of control | dose: 50.0 mg/kg/injection, schedule: Q04DX003 (ip), vehicle: other 105 % of control | [6] 103 % of control | dose: 100.0 mg/kg/injection, schedule: Q04DX003 (ip), vehicle: other 111 % of control | dose: 200.0 mg/kg/injection, schedule: Q04DX003 (ip), vehicle: other 113 % of control | dose: 400.0 mg/kg/injection, schedule: Q04DX003 (ip), vehicle: other 100 % of control

CCOC(=O)/C=C1\CCCc2ccc(Cl)cc21
inactive: [7] 111 % of control | [8] 101 % of control and 104 % of control | dose: 200.0 mg/kg/injection, schedule: Q04DX002 (ip), vehicle: saline with Tween-80 101 % of control | dose: 400.0 mg/kg/injection, schedule: Q04DX002 (ip), vehicle: saline with Tween-80 101 % of control

CCOc1ccnc(OCC)n1
inactive: [4] 86 % of control | [5] 95 % of control | [9] 100 % of control | [6] 97 % of control | [10] 91 % of control | [11] 106 % of control

c1ccc2c(C3CSC3)nncc2c1
inactive: dose: 100.0 mg/kg/injection, schedule: Q01DX001 (ip), vehicle: saline 97 % of control | dose: 200.0 mg/kg/injection, schedule: Q01DX001 (ip), vehicle: saline 97 % of control | dose: 400.0 mg/kg/injection, schedule: Q01DX001 (ip), vehicle: saline 94 % of control

CCOC(=O)C1SC(N)=NC1=O (stereo not drawn)
inactive: [11] 94 % of control | dose: 200.0 mg/kg/injection, schedule: Q04DX003 (ip), vehicle: saline with Tween-80 90 % of control

CC(=O)C1=CC2(OC3CCC(O)(C(=O)CO)C(C)O3)C(=O)c3c(cc4cccc(O)c4c3O)CC2C(O)C1O (stereo not drawn)
inactive: dose: 3.12 mg/kg/injection, schedule: Q01DX001 (ip), vehicle: carboxymethylcellulose (CMC) 114 % of control | dose: 6.25 mg/kg/injection, schedule: Q01DX001 (ip), vehicle: carboxymethylcellulose (CMC) 100 % of control | dose: 12.5 mg/kg/injection, schedule: Q01DX001 (ip), vehicle: carboxymethylcellulose (CMC) 104 % of control | dose: 25.0 mg/kg/injection, schedule: Q01DX001 (ip), vehicle: carboxymethylcellulose (CMC) 106 % of control | dose: 50.0 mg/kg/injection, schedule: Q01DX001 (ip), vehicle: carboxymethylcellulose (CMC) 115 % of control | dose: 50.0 mg/kg/injection, schedule: Q01DX015 (ip), vehicle: carboxymethylcellulose (CMC) 102 % of control | dose: 100.0 mg/kg/injection, schedule: Q01DX001 (ip), vehicle: carboxymethylcellulose (CMC) 111 % of control | dose: 100.0 mg/kg/injection, schedule: Q01DX015 (ip), vehicle: carboxymethylcellulose (CMC) 102 % of control | dose: 200.0 mg/kg/injection, schedule: Q01DX001 (ip), vehicle: carboxymethylcellulose (CMC) 100 % of control | dose: 200.0 mg/kg/injection, schedule: Q01DX015 (ip), vehicle: carboxymethylcellulose (CMC) 93 % of control | dose: 400.0 mg/kg/injection, schedule: Q01DX001 (ip), vehicle: carboxymethylcellulose (CMC) 97 % of control | dose: 400.0 mg/kg/injection, schedule: Q01DX015 (ip), vehicle: carboxymethylcellulose (CMC) 93 % of control

O=C(c1ccccc1)C(Cl)c1ccccc1 (stereo not drawn)
inactive: [3] 105 % of control | dose: 50.0 mg/kg/injection, schedule: Q01DX009 (ip), vehicle: Klucel (hydroxypropylcellulose) (HPC) 111 % of control | dose: 100.0 mg/kg/injection, schedule: Q01DX009 (ip), vehicle: Klucel (hydroxypropylcellulose) (HPC) 107 % of control

O=C1C=CC(=Nc2ccc(Cl)cc2)O1
inactive: [10] 104 % of control | dose: 200.0 mg/kg/injection, schedule: Q01DX009 (ip), vehicle: saline with Tween-80 102 % of control | dose: 400.0 mg/kg/injection, schedule: Q01DX009 (ip), vehicle: saline with Tween-80 97 % of control

CCC(CN(C)C)C(=O)c1ccccc1 (stereo not drawn)
inactive: dose: 6.0 mg/kg/injection, schedule: Q01DX009 (ip), vehicle: saline 93 % of control | dose: 12.0 mg/kg/injection, schedule: Q01DX009 (ip), vehicle: saline 91 % of control | [4] 93 % of control | dose: 25.0 mg/kg/injection, schedule: Q01DX009 (ip), vehicle: saline 88 % of control | [1] 100 % of control | [9] 96 % of control | [7] 96 % of control | [10] 93 % of control | [8] 104 % of control
